Experiments:
[1] = Stability of quinone product (TLC and NMR); format: physicochemical; conditions: in D7 DMF, following the initiation of the reaction
Method: To a solution of Combretastatin A-4 (0.032 g, 0.100 mmol; OXiGENE, Inc.) was added Iodoxybenzoic acid (0.028 g, 0.099 mmol) in D7 DMF (4 ml) with stirring by vortex for ½ hr. Completion of the reaction was indicated by the disappearance of the initial yellowish slurry and the appearance of a clear solution of a deep red color. ^1H-NMR was performed immediately as the quinone product was highly unstable and degraded within a ½ hr following the initiation of the reaction, as indicated by TLC and NMR.

[2] = Reaction of ortho-quinone with glutathione and ascorbate (stopped-flow, HPLC); format: physicochemical; conditions: stopped-flow rapid mixing, FIG. 1A
Text: The formation of each quinone was examined by reacting its corresponding catechol with excess FeCl3/H2SO4 and monitoring the reaction by HPLC. The identity of each quinone was confirmed by HPLC-MS (mass 330, λmax 312, 422 nm).

[3] = system: tumor cells; assay: Tumor cell cytotoxicity, MTT assay; format: cell-based
Method: Exponentially growing tumor cells were treated with the following compounds for 24 hours. Insoluble compounds were formulated in a small amount (0.3%) of DMSO for biological evaluation. Cell viability was determined by the calorimetric MTT assay using 3(4,5-dimethylthiazol-2-yl)-2,5-diphenyl-2H-tetrazolium bromide according to well-established procedures (see Berridge, et al. (1996) for a general protocol of this type of assay).

[4] = system: tumor xenografts; assay: Evaluation of tumor xenografts treated with CA1P; format: in vivo
Text: It is expected that in the highly oxygenated regions of the tumor, such as the tumor rim, that are resistant to tumor blood shutdown, CA1 is readily oxidized to its corresponding quinone, and is able to render a single agent response due to this second mechanism of action.

[5] = system: MHEC-5T tumors; assay: Reduction in tumor blood flow / functional tumor vessels (fluorescent beads); format: in vivo, mice; conditions: for reduction in tumor blood flow: 24 hr post-drug
Method: (§1) Catechols were dissolved in 50% DMSO (2 mg/kg) prior to intravenous (iv) administration (i.v.) to tumor-bearing mice. MHEC-5T tumors were established by subcutaneous injection of 0.5×10^6 cultured MHEC5-T cells (German Collection of Microorganisms and Cell Culture, Braunschweig, Germany) into the right flank of Fox Chase CB-17 severe combined immunodeficient (SCID) mice. Tumor grafts grew palpable within one week and reached the limited size (15×15 mm) within 10 days. Tumor bearing mice were injected intraperitoneally with saline control or various dosages of CA1P or CA4P after the transplanted tumor reached a size of 300 mm^3 (a size without development of necrosis). Twenty-four hours later they were injected with 0.25 ml of fluorescent FluoSphere beads (0.1 μm beads conjugated with blue fluorescent tag (F-8789, Molecular Probes, Eugene, Oreg.) and diluted 1:6 in physiological saline) in the tail vein, and sacrificed after 3 minutes. Tumors were then excised for cryosections. Cryosections of 8 μm thickness were directly examined under a fluorescent microscope. Functional blood vessels were indicated by blue fluorescence from injected microbeads. For quantification, three sections from three tumors treated in each group were examined and in each section, more than 70% of the area was automatically recorded with a microscopic digital camera at ×10 magnification. A computer program named Stage Pro (Media Cybernetics, Md.) was used to control the picture recording. Image analysis was performed with Image Plus software (Media Cybernetics, Md.). The results were expressed as vessel area per mm^2 in percentage of the control in Table 2.
as §1, with “The effect of CA1P on tumor blood flow was evaluated by quantifying the number of functional tumor vessels” for “Catechols were dissolved”, “treated murine tumors.” for “50% DMSO (2 mg/kg) prior to intravenous (iv) administration (i.v.) to tumor-bearing mice.”, “as in Example 4c.” for “by subcutaneous injection of 0.5×10^6 cultured MHEC5-T cells (German Collection of Microorganisms and Cell Culture, Braunschweig, Germany) into the right flank of Fox Chase CB-17 severe combined immunodeficient (SCID) mice. Tumor grafts grew palpable within one week and reached the limited size (15×15 mm) within 10 days.”, “MD)” for “Md.)”, “MD).” for “Md.).”, “control.” for “control in Table 2.”

[6] = system: murine adenocarcinoma CaNT; assay: Functional vascular volume of tumor vessels (Hoechst 333342); format: in vivo, mice; conditions: 1 mg/kg i.p. (lowest dose), 24 hours
Method: The effect of CA1P on tumor blood flow was evaluated by quantification of the functional volume of tumor vessels in treated murine tumors using a procedure previously described in detail and incorporated by reference herein (Smith K A, Br. J. Cancer, 57:247-253, 1988). The murine adenocarcinoma CaNT was grown subcutaneously on the back of 12- to 16-week old CBA/Gy fTO mice. Tumors were initiated by the injection of 0.05 ml of a crude tumor cell suspension prepared from a donor mouse. Animals were selected for treatment after 3 or 4 weeks, when tumors had reached a geometric mean diameter of 5 to 6.5 mm. CA1P and CA4P were dissolved in 0.9% saline at various concentrations and injected intraperitoneally into tumor bearing mice. Each treatment group consisted of between five and nine mice. A control treatment group was injected with 0.9% saline. At 24 hours post-injection, each mouse was injected intravenously with a 10 mg/kg dose of the fluorescent DNA-binding dye Hoechst 333342 and sacrificed 1 minute later. Tumors were immediately excised and bisected. Frozen tumor sections were cut at three levels and viewed under UV excitation where the fluorescent staining of perivascular cells identified perfused vessels. Vascular volumes were quantified based on a random point scoring system previously described and incorporated by reference herein (Chalkley H W, J. Natl Cancer Institute, 4: 47-53, 1943). All estimates were based on counting 100 fields from sections cut at each of the 3 different levels and the calculated vascular volumes were expressed as a percentage of the mean value for control tumors.

[7] = system: murine adenocarcinoma CaNT; assay: Tumor growth control in CaNT murine tumor model; format: in vivo, mice; conditions: single doses of 100, 200, and 400 mg/kg i.p., FIG. 5
Method: The murine adenocarcinoma CaNT was grown subcutaneously on the back of 12- to 16-week old CBA/Gy fTO mice. Tumors were initiated by the injection of 0.05 ml of a crude tumor cell suspension prepared from a donor mouse. Animals were selected for treatment after 3 or 4 weeks, when tumors had reached a geometric mean diameter of 5 to 6.5 mm. CA1P and CA4P were dissolved in 0.9% saline at various concentrations and injected intraperitoneally into tumor bearing mice. Each treatment group consisted of between five and nine mice. A control treatment group was injected with 0.9% saline.

[8] = cited from earlier work
[9] = system: tubulin; conditions: cited from earlier work
[10] = Recovery of CA1 from plasma; format: in vitro ADME; conditions: in the presence of ascorbic acid in the extraction mixture
Text: In blood, the ortho catechol CA1 is susceptible to oxidation. […] The recovery of CA1 was resolved by incorporation of ascorbic acid as an antioxidant in the extraction mixture. In the presence of ascorbic acid the recovery of CA1 from plasma was increased to approximately 90%.

Q: For `COC1=CC=C(/C=C\c2cc(OC)c(OC)c(OC)c2)C(=O)C1=O` [CA-1 Ortho-Quinone], which “time to degradation of quinone product” value [1] is on record?
A: ½

Q: What about the “reaction with glutathione and ascorbate” value [2] of the same compound?
A: react rapidly

Q: With `COc1cc(/C=C\c2ccc(OC)c(OP(=O)(O)O)c2OP(=O)(O)O)cc(OC)c1OC` [CA1P, Combretastatin A-1 diphosphate] as the compound, how does the “antiproliferative activity against tumor cells in vitro” value ([3]; in comparison to CA4P) read?
A: inferior

Q: What about the “tumor cell destruction by location” value [4] of the same compound?
A: not only destroyed centrally located tumor cells but also cells located at the periphery of the tumor

Q: And the “ED50 (vascular effect)” value ([5]; functional vessel number per mm^2, i.p., 24 hr, MHEC-5T tumors)?
A: 3 mg/kg

Q: What about the “blood flow in the peripheral region of tumors” value ([5]; periphery = rim of width 10% of the tumor diameter) of the same compound?
A: reduced the blood flow in the peripheral region as well

Q: And the “reduction in tumor blood flow” value ([5]; single i.p. injection 3 mg/kg, MHEC-5T tumors)?
A: 50%

Q: What about the “reduction in tumor blood flow” value ([5]; single i.p. injection 6 mg/kg, MHEC-5T tumors) of the same compound?
A: 74%

Q: What about the “reduction in tumor blood flow” value ([5]; single i.p. injection 50 mg/kg, MHEC-5T tumors) of the same compound?
A: 90%

Q: And the “blood flow in the central region of tumors” value ([5]; spatial distribution of blood vessel shutdown)?
A: blood flow reduction

Q: And the “reduction of the percentage of functional vasculature in the tumor” value [6]?
A: over 50%

Q: And the “effect on tumor growth” value [7]?
A: significant tumor growth delay

Q: Which results are given for `COc1ccc(/C=C\c2cc(OC)c(OC)c(OC)c2)cc1O` [CA-4, Combretastatin A-4]?
A: solubility in human plasma [8]: insolubility; tubulin binding activity [9]: potent

Q: Which IC50 ([3]; tumor cells treated for 24 hours) does the source give for `COc1ccc(/C=C\c2cc(OC)c(OC)c(OC)c2)c(O)c1O` [CA1, Combretastatin A-1] here?
A: 0.0046 µM

Q: And the “Blood Flow at 10 mg/kg (% vessel area of control)” value ([5]; 10 mg/kg, MHEC-5T tumor-bearing SCID mice, 24 hours after dosing)?
A: 30 % vessel area of control

Q: And the recovery [10]?
A: ~90%
